Test results as given in US9072729B2, “Method for treating fibrosis and cancer with imidazolium and imidazolinium compounds” (Agency for Science, Technology and Research, priority 2008, dated 2015).
Like-named read-outs stand apart in the source and are kept apart here.

What was measured:
HSC T6 cells = assay: MTS based proliferation assay (cytotoxicity) on cultured HSC-T6 cells; type: cell-based, rat; details: for IC50: read-out: IC50 (toxicity on T6 cells); for inhibition of cell proliferation: 48 h, 10% FBS DMEM
Procedure: FIG. 1. Cytotoxicity of (a) DBZIM and (b) TDBZIM. […] The signal was normalized against a vehicle control treatment (0 μM of compound). The data were obtained from four independent experiments, and presented as mean and standard error or mean (SEM), *^aP<0.05, *^bP<0.01 and *^cP<0.005.
Firstly we assessed the cytotoxicity of DBZIM and TDBZIM on cultured HSC-T6 cells using a 3-(4,5-dimethylthiazol-2-yl)-5-(3-carboxymethoxyphenyl)-2-(4-sulfophenyl)-2H-tetrazolium (MTS) based proliferation assay kit (Promega, Wis., USA). […]

GFAP-LacZ transgene = assay: β-galactosidase activity in T6/GFAP-lacZ cells; type: cell-based, rat
Procedure: FIG. 12. (a) DBZIM and (b) TDBZIM attenuated GFAP-LacZ transgene as reported by β-galactosidase activity. Stable transfected T6 GFAP-LacZ cells were treated with compounds of 1-300 μM concentrations, and assayed after 24 h and 48 h. The (3-galactosidase activity was normalized to the total protein, and presented as relative value after comparing to the vehicle control. The data were presented as mean and SEM, N=6, *^cP<0.005, and *^dP<0.0005, when compared to the vehicle control.
Beta-galactosidase activity in extracts from T6/GFAP-lacZ cells treated by DBZIM or TDBZIM was measured using a chemiluminescent assay kit (Roche, Mannheim, Germany) in a 96-well plate format, according to the manufacturer's instructions. Briefly, cells were washed twice with ice-cold 1×PBS (pH 7.4), and lysed for 30 min at room temperature in the lysis buffer. The supernatant was collected for assays with a Tecan Sere II plate reader. Protein concentration was determined with a BCA protein assay kit (Pierce, Ill., USA). Specific β-galactosidase activity was obtained by normalizing against total cellular protein content.

HSC-T6 cells = assay: Cellular ROS determination (DCF labeling); type: cell-based, rat; details: 48 h
Procedure: FIG. 2. (a) DBZIM and (b) TDBZIM attenuated cellular ROS level. HSC T6 cells were incubated with DBZIM (10, 50, 100 and 300 μM), TDBZIM (10, 50 and 100 μM), NAC (1 mM) and EGCG (25 μM) for 48 h before assaying for cellular ROS levels. The data were presented as relative values after normalizing against a vehicle control. The data were presented as mean and SEM, N=6, *^bP<0.01, *^cP<0.005, and *^dP<0.0005 when compared to the vehicle, control.
The ROS level of treated HSC-T6 cells was determined using the dichlorofluorescein (DCF) labeling method (Molecular Probes Inc., OR, USA). Cultured cells were harvested by trypsinization, and resuspended in phenol red-free DMEM (Invitrogen). Cells were then incubated with 10 μg/ml of 2′,7′-dichloro-fluorescein diacetate (DCFH-DA) in DMEM for 15 min before resuspension in DMEM for assaying. Cell solution was dispensed into a black-wall 96-well pate in triplicate for fluorescence readout at Ex=485 nm and Em=530 nm with a Tecan Safire II plate reader. The fluorescence unit was normalized against viable cell numbers, which were determined using 3-(4,5-dimethylthiazol-2-yl)-2,5-diphenyl tetrazolium bromide (MTT assay, Promega, Wis., USA). Cellular ROS level was expressed relative to the control sample.

[1] = test system: caspase 3, caspase 9 and PARP; assay: Western blot of caspase-3, caspase-9 and PARP cleavage in HLE; type: cell-based, human; details: 72 h
Procedure: FIG. 38. IMSs, induce cleavage of caspase-3, caspase-9 and PARP. Western blot analysis for the effect of IBN 15, IBM 19, IBN 24, IBM 25, IBN 32 on the cleavage of caspase-3, Caspase-9 and PARP in HLE cells after 72 h exposure to indicated doses of IMSs.
The HLE cells were seeded at a density of 4×10^5 in 10 cm dish. After 24 h incubation, the cells were replaced with fresh 10% DMEM medium and then treated with 60 μM of IBN-15, 90 μM of IBN-19, 90 μM of IBN-24, 30 μM of IBN-25 and 20 μM of IBN 32 and 0.045% DMSO as control for 72 h. Whole cell lysates were prepared on day 3 with lysis buffer [125 mM Tris (pH 7.4), 2% Sodium dodecyl sulfate, 10% glycerol, 6M urea and a protease inhibitor cocktail (Sigma) and 0.02% Bromophenol blue]. The lysates were sonicated for 30 seconds and then heated for 5 mins at boiling temperature. The lysates were centrifuged at 13000 rpm for 10 mins and the protein concentration of each sample was estimated using the BCA protein assay. The lysates was then mixed with 5% 2-mercaptoethanol and stored at −80 C. For Western blotting, samples containing 50 μg of total cell lysate were loaded onto a SDS-PAGE and subjected to electrophoresis. Proteins were transferred to a nitrocellulose membrane and then blocked with 5% non-fat dry milk in Tris buffer saline containing 0.1% Tween 20 for 60 min at 37 C. The membranes were probed with a primary antibody overnight at 4 C in TEST containing 5% Bovine serum albumin. Then the membrane was incubated with horseradish peroxidase (HRP)-conjugated anti-rabbit or anti-mouse secondary antibodies (GE Health care, Chalfont St Giles, UK). Detection was performed with enhanced chemiluminescence (ECL) reagent (Amersham Arlington Heights, Ill.) according to the manufacturer's protocol. Rabbit polyclonal Phospho-p53 (Ser15, 20, 46, 392), anti-caspase-9, anti-caspase-3, anti-PARP antibodies were purchased from Cell Signaling Technology, Inc. (Beverly, Mass., USA). Antibodies against p53 and p21 were purchased from Santa Cruz Biotechnology (Santa Cruz, Calif., USA).

[2] = Rattus norvegicus, HSC-T6, HSC T6 cells

“1,3,5-tris(4-methyl-imidazolium)-linked cyclophane.3Br [TDBZIM]” was tested, and the IC50 (HSC T6 cells; HSC T6 cells) was about 500 µM, the “inhibition of cell proliferation” value (HSC T6 cells; TDBZIM 125-200 μM) was 13-19% and the “suppression of β-galactosidase activity (transient)” value (GFAP-LacZ transgene; 100 μM, 24 h) was 20%. The “suppression of cellular ROS level” value (HSC-T6 cells; 10 μM) was 19% and the “suppression of cellular ROS level” value (HSC-T6 cells; 100 μM) was 36%.

For `[Br-].c1ccc(Cn2cc[n+](Cc3ccccc3)c2)cc1` [DBZIM, 1,3-bisbenzylimidazolium bromide], the “inhibition of cell proliferation” value (HSC T6 cells; DBZIM 250-400 μM) was 3.5-8.9%, the IC50 (HSC T6 cells; [2]) was 1700 µM and the “suppression of β-galactosidase activity” value (GFAP-LacZ transgene; 100 μM) was 25%. The “suppression of β-galactosidase activity” value (GFAP-LacZ transgene; 300 μM) was 34%, the “suppression of cellular ROS level” value (HSC-T6 cells; 50 μM) was 25% and the “suppression of cellular ROS level” value (HSC-T6 cells; 300 μM) was 34%.

For `CC(C)n1cc[n+](C(C)C)c1.F[B-](F)(F)F` [DPIM, 1,3-diisopropylimidazolium tetrafluoroborate], the IC50 (HSC T6 cells; [2]) was 3100 µM.

In the case of `CC(=O)Oc1ccc(C[n+]2ccn(Cc3ccccc3)c2C)cc1.[Cl-]` [IBN-19, 1-benzyl-3-(4-acetate-benzyl)-2-methyl-imidazolium chloride], the “activation and cleavage of caspase 3, caspase 9 and PARP” value [1] is reported as “induced significant activation and cleavage”.

For `Cc1ccc(C[n+]2ccn(Cc3ccccc3)c2)cc1.[Cl-]` [IBN-24, 1-benzyl-3-(4-methylbenzyl)-imidazolium chloride], the “activation and cleavage of caspase 3, caspase 9 and PARP” value [1] was “induced significant activation and cleavage”.

In the case of “(−)-Epigallocatechin gallate [EGCG, reference compound]”, the “attenuation of cellular ROS level (references)” value (HSC-T6 cells; EGCG 25 μM, NAC 1 mM) is reported as 14%.
